# According to patent US9757456B2, “Super-saturating delivery vehicles for poorly water-soluble pharmaceutical and cosmetic active ingredients and suppression of crystallization of pharmaceutical active ingredients” (Nanologica AB, priority 2010, dated 2017):
# Legend:
# [1] = Dissolution / kinetic release of atazanavir from nanoporous silica in simulated intestine fluid (SIF); format: physicochemical
# Protocol: In order to compare the concentrations of atazanavir crystallite and atazanavir in nanoporous silica, the UV absorbance scans of atazanavir in SIF with the time are shown in FIG. 1. […] The atazanavir super-saturating solutions from the nanoporous silica. […] Particularly, the super-saturating state produced from NFM-1 could be maintain for 24 hours, and the other two could maintain for 7 hours.
# For nanoporous material NFM-1 loaded with ATV, the dissolution rate appears to decrease with increased particle concentration as a percentage of loaded amount. […] In the case of the highest particle concentration, a supersaturation state is maintained for 4 hours after which the dissolution decreases rapidly due to crystallization of the drug in the water bath in which the dissolution study is conducted.
# [2] = cited from earlier work
# [3] = cited from earlier work; remark: listed apart in the source
# [4] = Solubility and release of Retinol / Retinol 50C in water; format: physicochemical; conditions: 37° C., 150 rpm, after 20 days release from a nanoporous material
# Protocol: As a mesoporous silica material, AMS-6 was selected in this example, having an Ia3d cubic pore structures, and a small pore diameter (around 4 nm average). Prior to the loading, AMS-6 was thermally treated in order to increase the hydrophobic of the inner/outer surface. 10 grams of calcined AMS-6 were placed in an oven and heated at 600° C. during 12 hours. The selected active ingredient was Retinol 50C. Retinol 50C is a formulation comprising pure Retinol and an excipient namely Polisorbate 20 used as stabilizer. […] The percentage of each component in the formulation is 50% in weight.
solubility in SIF (in words) ([1]; UV absorbance over time),"solubility at 4 h ([1]; simulated intestine fluid (SIF), fassgf or other biorelevant, thermodynamic from solid, after 4 hours, higher concentration of NFM-1-ATV particles, read-out: maximum solubility) [µg/mL]",concentration of Retinol dissolved in water [4] [mg/L],Compound,log P [2],reduction in plasma concentration (Cmin) ([3]; co-administered with proton pump inhibitors) [%],bioavailability ([3]; in vivo),half-life ([3]; in vivo) [h]
very low,0.254,,COC(=O)N[C@H](C(=O)N[C@@H](Cc1ccccc1)[C@@H](O)CN(Cc1ccc(-c2ccccn2)cc1)NC(=O)[C@@H](NC(=O)OC)C(C)(C)C)C(C)(C)C [Atazanavir],5.20,≤ 78,60-68%,6.5
,,3.4,CC1=C(/C=C/C(C)=C/C=C/C(C)=C/CO)C(C)(C)CCC1 [Retinol],,,,
